Assay results published in patent publication US10351561B2, “Pyrazolo[3,4-b]pyridines and imidazo[1,5-b]pyridazines as PDE1 inhibitors” (H. Lundbeck A/S, priority 2016, dated 2019).
pIC50: −log10 of the molar value. Read-outs that look alike come from different tables or passages of the source.

Columns and labels:
Format in all cases: biochemical
PDE1B = PDE1B (Homo sapiens, UniProt Q01064); assay: PDE1 inhibition assay (PDE1B), SPA with tritium labelled cAMP; settings: 15 nM tritium labelled cAMP, 1 hr at room temperature, SPA beads; for pIC50: read-out: PDE1B, IC50
PDE1B, sequence (Q01064 whole entry): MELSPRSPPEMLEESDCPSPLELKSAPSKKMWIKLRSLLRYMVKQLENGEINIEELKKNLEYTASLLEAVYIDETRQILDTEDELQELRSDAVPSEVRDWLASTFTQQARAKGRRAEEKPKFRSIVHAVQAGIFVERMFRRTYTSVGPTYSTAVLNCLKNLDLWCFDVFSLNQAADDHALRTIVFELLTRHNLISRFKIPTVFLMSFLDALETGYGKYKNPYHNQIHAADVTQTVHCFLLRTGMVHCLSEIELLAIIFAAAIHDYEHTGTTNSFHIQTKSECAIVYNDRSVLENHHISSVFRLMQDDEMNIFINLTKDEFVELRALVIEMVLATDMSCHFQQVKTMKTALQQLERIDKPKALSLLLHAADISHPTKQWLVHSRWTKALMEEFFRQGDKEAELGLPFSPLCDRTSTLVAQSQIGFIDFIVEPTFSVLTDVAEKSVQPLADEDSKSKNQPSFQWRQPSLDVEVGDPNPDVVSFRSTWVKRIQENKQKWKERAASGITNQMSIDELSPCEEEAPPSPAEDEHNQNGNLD
Procedure: Reactions were initiated by addition of the cyclic nucleotide substrate, and reactions were allowed to proceed for 1 hr at room temperature before being terminated through mixing with 20 μL (0.2 mg) yttrium silicate SPA beads (PerkinElmer).

PDE1C = PDE1C (Homo sapiens, UniProt Q14123); assay: PDE1 inhibition assay (PDE1C), SPA with tritium labelled cAMP; settings: 15 nM tritium labelled cAMP, 1 hr at room temperature, SPA beads
PDE1C, sequence (Q14123 whole entry): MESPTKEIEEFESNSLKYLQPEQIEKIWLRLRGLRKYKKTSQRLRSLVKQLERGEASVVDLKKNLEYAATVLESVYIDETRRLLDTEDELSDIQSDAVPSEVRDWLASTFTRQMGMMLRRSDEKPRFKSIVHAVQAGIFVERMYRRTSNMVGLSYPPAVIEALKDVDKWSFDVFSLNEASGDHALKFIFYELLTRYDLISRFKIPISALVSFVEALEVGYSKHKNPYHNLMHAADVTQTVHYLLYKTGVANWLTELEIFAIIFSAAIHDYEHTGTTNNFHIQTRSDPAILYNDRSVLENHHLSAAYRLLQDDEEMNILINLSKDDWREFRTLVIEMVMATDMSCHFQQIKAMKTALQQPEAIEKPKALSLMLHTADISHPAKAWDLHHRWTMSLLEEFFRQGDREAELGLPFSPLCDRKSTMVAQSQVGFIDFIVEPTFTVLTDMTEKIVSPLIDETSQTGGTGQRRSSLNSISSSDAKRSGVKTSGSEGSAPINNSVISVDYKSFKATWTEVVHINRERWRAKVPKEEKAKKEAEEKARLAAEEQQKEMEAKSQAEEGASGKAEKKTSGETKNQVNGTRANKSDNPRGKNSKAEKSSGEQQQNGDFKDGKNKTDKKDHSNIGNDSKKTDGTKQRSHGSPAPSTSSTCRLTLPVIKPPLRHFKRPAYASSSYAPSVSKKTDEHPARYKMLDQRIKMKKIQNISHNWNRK
Procedure: (§1) PDE1A, PDE1B and PDE1C assays were performed as follows: the assays were performed in 60 μL samples containing a fixed amount of the PDE1 enzyme (sufficient to convert 20-25% of the cyclic nucleotide substrate), a buffer (50 mM HEPES (4-(2-hydroxyethyl)-1-piperazineethanesulfonic acid) pH 7.6; 10 mM MgCl2; 0.02% Tween20), 0.1 mg/ml BSA (bovine serum albumin), 15 nM tritium labelled cAMP and varying amounts of inhibitors. Reactions were initiated by addition of the cyclic nucleotide substrate, and reactions were allowed to proceed for 1 hr at room temperature before being terminated through mixing with 20 μL (0.2 mg) yttrium silicate SPA beads (PerkinElmer). The beads were allowed to settle for 1 hr in the dark before the plates were counted in a Wallac 1450 Microbeta counter. The measured signals were converted to activity relative to an uninhibited control (100%) and IC50 values were calculated using XIFit (model 205, IDBS).

PDE1A = PDE1A (Homo sapiens, UniProt P54750); assay: PDE1 inhibition assay (PDE1A), SPA with tritium labelled cAMP; settings: 15 nM tritium labelled cAMP, 1 hr at room temperature, SPA beads
PDE1A, sequence (P54750 whole entry): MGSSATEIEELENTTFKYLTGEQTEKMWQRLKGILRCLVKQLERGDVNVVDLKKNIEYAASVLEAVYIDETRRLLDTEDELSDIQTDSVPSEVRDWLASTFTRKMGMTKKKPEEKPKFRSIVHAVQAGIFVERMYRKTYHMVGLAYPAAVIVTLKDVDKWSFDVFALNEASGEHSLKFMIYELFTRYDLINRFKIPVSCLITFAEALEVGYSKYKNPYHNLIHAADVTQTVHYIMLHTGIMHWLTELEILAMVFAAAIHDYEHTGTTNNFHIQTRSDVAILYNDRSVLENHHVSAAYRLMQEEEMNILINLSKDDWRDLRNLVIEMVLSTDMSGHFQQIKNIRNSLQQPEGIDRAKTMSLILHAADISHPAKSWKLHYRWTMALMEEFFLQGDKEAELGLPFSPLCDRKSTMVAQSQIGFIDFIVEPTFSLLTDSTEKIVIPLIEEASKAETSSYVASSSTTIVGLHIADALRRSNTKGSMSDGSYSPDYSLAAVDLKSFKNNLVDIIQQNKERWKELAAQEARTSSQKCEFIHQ
Procedure: as §1

pIC50 (PDE1B) | pIC50 (PDE1C) | pIC50 (PDE1A) | SMILES | IC50 (PDE1B; PDE1B, IC50 (nM))
8.55 | 7.52 | 7.80 | CCOc1ncccc1-c1cc(NCc2nnn(C)n2)c2c(C(C)C)nn(C)c2n1 [Example 20, 6-(2-ethoxy-3-pyridyl)-3-isopropyl-1-methyl-N-[(2-methyltetrazol-5-yl)methyl]pyrazolo[3,4-b]pyridin-4-amine] | 
8.28 | 7.44 | 7.52 | CCOc1ncccc1-c1cc(NCc2ccn(C)n2)c2c(C(C)C)nn(C)c2n1 [Example 21, 6-(2-ethoxy-3-pyridyl)-3-isopropyl-1-methyl-N-[(1-methylpyrazol-3-yl)methyl]pyrazolo[3,4-b]pyridin-4-amine] | 
8.74 | 7.80 | 7.77 | CCOc1ncccc1-c1cc(NCc2cnn(C)c2)c2c(C(C)C)nc(C)n2n1 [Example 22, 2-(2-ethoxy-3-pyridyl)-5-isopropyl-7-methyl-N-[(1-methylpyrazol-4-yl)methyl]imidazo[1,5-b]pyridazin-4-amine] | 
9.11 | 8.33 | 8.27 | CCOc1ncccc1-c1cc(NCc2nnn(C)n2)c2c(C(C)C)nc(C)n2n1 [Example 23, 2-(2-ethoxy-3-pyridyl)-5-isopropyl-7-methyl-N-[(2-methyltetrazol-5-yl)methyl]imidazo[1,5-b]pyridazin-4-amine] | 
8.74 | 7.89 | 7.85 | CCOc1ncccc1-c1cc(NCc2ccn(C)n2)c2c(C(C)C)nc(C)n2n1 [Example 24, 2-(2-ethoxy-3-pyridyl)-5-isopropyl-7-methyl-N-[(1-methylpyrazol-3-yl)methyl]imidazo[1,5-b]pyridazin-4-amine] | 
8.20 | 7.74 | 7.80 | CCOc1ncccc1-c1cc(NCc2cncc(OC)c2)c2c(C(C)C)nn(C)c2n1 [Example 25, 6-(2-ethoxy-3-pyridyl)-3-isopropyl-N-[(5-methoxy-3-pyridyl)methyl]-1-methyl-pyrazolo[3,4-b]pyridin-4-amine] | 
8.00 | 7.22 | 7.28 | CCOc1ncccc1-c1cc(NCc2cnc(C)o2)c2c(C(C)C)nn(C)c2n1 [Example 27, 6-(2-ethoxy-3-pyridyl)-3-isopropyl-1-methyl-N-[(2-methyloxazol-5-yl)methyl]pyrazolo[3,4-b]pyridin-4-amine] | 
8.36 | 7.89 | 7.85 | CCOc1ncccc1-c1cc(NCc2cnc(C)s2)c2c(C(C)C)nn(C)c2n1 [Example 28, 6-(2-ethoxy-3-pyridyl)-3-isopropyl-1-methyl-N-[(2-methylthiazol-5-yl)methyl]pyrazolo[3,4-b]pyridin-4-amine] | 
8.80 | 7.48 | 7.74 | CCOc1ncccc1-c1cc(NCc2cn(C)nn2)c2c(C(C)C)nn(C)c2n1 [Example 29, 6-(2-ethoxy-3-pyridyl)-3-isopropyl-1-methyl-N-[(1-methyltriazol-4-yl)methyl]pyrazolo[3,4-b]pyridin-4-amine] | 
7.80 | 7.12 | 7.07 | CCOc1ncccc1-c1cc(NCc2cn[nH]c2)c2c(C(C)C)nn(C)c2n1 [Example 30, 6-(2-ethoxy-3-pyridyl)-3-isopropyl-1-methyl-N-(1H-pyrazol-4-ylmethyl)pyrazolo[3,4-b]pyridin-4-amine] | 
7.80 | 6.96 | 6.96 | CCOc1ncccc1-c1cc(NCc2nnc(C)o2)c2c(C(C)C)nn(C)c2n1 [Example 31, 6-(2-ethoxy-3-pyridyl)-3-isopropyl-1-methyl-N-[(5-methyl-1,3,4-oxadiazol-2-yl)methyl]pyrazolo[3,4-b]pyridin-4-amine] | 
8.11 | 7.20 | 7.09 | CCOc1ncccc1-c1cc(NCc2nc(C)no2)c2c(C(C)C)nn(C)c2n1 [Example 32, 6-(2-ethoxy-3-pyridyl)-3-isopropyl-1-methyl-N-[(3-methyl-1,2,4-oxadiazol-5-yl)methyl]pyrazolo[3,4-b]pyridin-4-amine] | 
9.38 | 8.28 | 8.47 | CCCOc1ncccc1-c1cc(NCc2ncn(C)n2)c2c(C(C)C)nn(C)c2n1 [Example 33, 3-isopropyl-1-methyl-N-[(1-methyl-1,2,4-triazol-3-yl)methyl]-6-(2-propoxy-3-pyridyl)pyrazolo[3,4-b]pyridin-4-amine] | 
9.54 | 8.42 | 8.57 | CCCOc1ncccc1-c1cc(NCc2cn(C)cn2)c2c(C(C)C)nn(C)c2n1 [Example 34, 3-isopropyl-1-methyl-N-[(1-methylimidazol-4-yl)methyl]-6-(2-propoxy-3-pyridyl)pyrazolo[3,4-b]pyridin-4-amine] | 
7.60 | 6.74 | 6.70 | CCOc1ncccc1-c1cc(NCc2nccc(C)n2)c2c(C(C)C)nn(C)c2n1 [Example 35, 6-(2-ethoxy-3-pyridyl)-3-isopropyl-1-methyl-N-[(4-methylpyrimidin-2-yl)methyl]pyrazolo[3,4-b]pyridin-4-amine] | 
8.40 | 7.11 | 7.30 | CCOc1ncccc1-c1cc(NCc2ncccn2)c2c(C(C)C)nn(C)c2n1 [Example 36, 6-(2-ethoxy-3-pyridyl)-3-isopropyl-1-methyl-N-(pyrimidin-2-ylmethyl)pyrazolo[3,4-b]pyridin-4-amine] | 
7.57 | 7.34 | 6.92 | CCOc1ncccc1-c1cc(NCc2ccc(OC)nc2)c2c(C(C)C)nn(C)c2n1 [Example 37, 6-(2-ethoxy-3-pyridyl)-3-isopropyl-N-[(6-methoxy-3-pyridyl)methyl]-1-methyl-pyrazolo[3,4-b]pyridin-4-amine] | 
7.48 | 6.74 | 6.74 | CCOc1ncccc1-c1cc(NCc2cccnc2C(F)(F)F)c2c(C(C)C)nn(C)c2n1 [Example 38, 6-(2-ethoxy-3-pyridyl)-3-isopropyl-1-methyl-N-[[2-(trifluoromethyl)-3-pyridyl]methyl]pyrazolo[3,4-b]pyridin-4-amine] | 
8.47 | 7.60 | 7.57 | CCOc1ncccc1-c1cc(NCc2cc(OC)ccn2)c2c(C(C)C)nn(C)c2n1 [Example 39, 6-(2-ethoxy-3-pyridyl)-3-isopropyl-N-[(4-methoxy-2-pyridyl)methyl]-1-methyl-pyrazolo[3,4-b]pyridin-4-amine] | 
8.05 | 7.09 | 7.17 | CCOc1ncccc1-c1cc(NCc2ccccn2)c2c(C(C)C)nn(C)c2n1 [Example 40, 6-(2-ethoxy-3-pyridyl)-3-isopropyl-1-methyl-N-(2-pyridylmethyl)pyrazolo[3,4-b]pyridin-4-amine] | 
7.70 | 6.70 | 6.74 | CCOc1ncccc1-c1cc(NCc2cccc(C)n2)c2c(C(C)C)nn(C)c2n1 [Example 42, 6-(2-ethoxy-3-pyridyl)-3-isopropyl-1-methyl-N-[(6-methyl-2-pyridyl)methyl]pyrazolo[3,4-b]pyridin-4-amine] | 
8.29 | 7.62 | 7.42 | CCOc1ncccc1-c1cc(NCc2cnn(C)n2)c2c(C(C)C)nc(C)n2n1 [Example 44, 2-(2-ethoxy-3-pyridyl)-5-isopropyl-7-methyl-N-[(2-methyltriazol-4-yl)methyl]imidazo[1,5-b]pyridazin-4-amine] | 
8.11 | 7.43 | 7.38 | CCOc1ncccc1-c1cc(NCc2nnc(C)o2)c2c(C(C)C)nc(C)n2n1 [Example 45, 2-(2-ethoxy-3-pyridyl)-5-isopropyl-7-methyl-N-[(5-methyl-1,3,4-oxadiazol-2-yl)methyl]imidazo[1,5-b]pyridazin-4-amine] | 
8.39 | 7.85 | 7.68 | CCOc1ncccc1-c1cc(NCc2nc(C)no2)c2c(C(C)C)nc(C)n2n1 [Example 46, 2-(2-ethoxy-3-pyridyl)-5-isopropyl-7-methyl-N-[(3-methyl-1,2,4-oxadiazol-5-yl)methyl]imidazo[1,5-b]pyridazin-4-amine] | 

SMILES | pIC50 (PDE1B) | pIC50 (PDE1C) | pIC50 (PDE1A) | IC50 (PDE1B; PDE1B, IC50 (nM))
CCOc1ncccc1-c1cc(NCc2cnn(C)n2)c2c(C(C)C)nn(C)c2n1 [Example 26, 6-(2-ethoxypyridin-3-yl)-3-isopropyl-1-methyl-N-((2-methyl-2H-1,2,3-triazol-4-yl)methyl)-1H-pyrazolo[3,4-b]pyridin-4-amine] |  | 7.12 | 6.96 | 18 nM
CCOc1ncccc1-c1cc(NCc2cccc(OC)n2)c2c(C(C)C)nn(C)c2n1 [Example 41, 6-(2-ethoxy-3-pyridyl)-3-isopropyl-N-[(6-methoxy-2-pyridyl)methyl]-1-methyl-pyrazolo[3,4-b]pyridin-4-amine] | 6.96 | 6.25 | 6.36 | 
CCOc1ncccc1-c1cc(NCc2ncon2)c2c(C(C)C)nc(C)n2n1 [Example 43, 2-(2-ethoxy-3-pyridyl)-5-isopropyl-7-methyl-N-(1,2,4-oxadiazol-3-ylmethyl)imidazo[1,5-b]pyridazin-4-amine] | 8.24 | 7.47 | 7.40 | 
